Earlier results on one substance are cited in US20250250278A2, “BRIARANE COMPOUNDS AND THEIR USE” (National Health Research Institutes, priority 2022, published 2025).

In data set [1] the test system is cyclooxygenase-2 (COX-2) mRNA. Conditions: LPS-challenged murine macrophages.
Data set [2] relates to inducible nitric oxide synthase (iNOS) mRNA. The following applies: LPS-challenged murine macrophages.
Assay in data set [3]: not given
The source holds these as a separate data set.

On to excavatolide B [ExcB], for which the bioavailability result is on record as “low”. The “inhibition of mRNA expression of COX-2” value in data set [1] was “significantly inhibiting”. For the same substance, the “inhibition of mRNA expression of iNOS” value in data set [2] is on record as “significantly inhibiting”. Moreover, the solubility in water result in data set [3] was “poor”.
